Where “and” joins values, the source holds several entries; their conditions need not be identical. Equal entries are not always repeated.
Columns and labels:
[1] = tested on: L1210 leukemia; assay: NCI 3LE32, s.c.-implanted L1210 leukemia; assay type: in vivo, murine (mice); parameters: key to Treated/Control percent: (-): toxic dose
Description: (§1) The spectrum of antitumor activity of the compound of Example 1 was determined employing a number of standard National Cancer Institute (NCI) protocols. The antitumor activity was determined in vivo against several different tumors, employing various treatment schedules and routes of administration.
(§2) The ratio of the survival time for the treated animals (T) to the survival time for the control animals (C) determined at varying dosages in the respective in vivo tests is set forth in the table: […]

[2] = tested on: CD8F1 mammary tumor; assay: NCI 3CDJ2, s.c.-implanted staged mammary adenocarcinoma CD8F1; assay type: in vivo, murine (mice); parameters: key to Treated/Control percent: (-): toxic dose
Description: as §1, §2

[3] = tested on: B16 melanoma; assay: NCI 3B131, i.p.-implanted B16 melanoma; assay type: in vivo, murine (mice)
Description: as §1, §2

[4] = tested on: M5076 sarcoma; assay: NCI 3M531, i.p.-implanted M5076 sarcoma; assay type: in vivo, murine (mice); parameters: key to Treated/Control percent: (-): toxic dose
Description: as §1
In three experiments involving the i.p. implanted M5076 sarcoma, maximum ILS values of 72, 72 and 48% were achieved after i.p. treatment on days 1, 5, 9 and 13.
as §2

[5] = tested on: L1210 leukemia; assay: NCI 3LE31, i.p.-implanted L1210 lymphoid leukemia; assay type: in vivo, DBA/2 mice
Description: as §1
Samples of the test compounds of Examples 1-10 and a number of structurally-related control compounds were tested in accordance with National Cancer Institute test protocol 3LE31 (NCI Protocol 1.100, Cancer Chemotherapy Reports Part 3, Vol. 3, No. 2, September 1972) to determine the effects of the several compounds on i.p.-implanted L1210 leukemia (J. Nat'l. Cancer Inst. 13(5):1328, 1953). Each test involved implantation of the leukemia cells in six DBA/2 mice, one sex per experiment, the male mice weighing a minimum of 18 grams and the female mice weighing a minimum of 17 grams, and all of the test animals being within a three gram weight range. The test compound was administered by i.p. injections, in 0.1 ml. doses of diluted ascitic fluid (10^5 cells per dose), commencing one day after the tumor implant and continuing daily for nine days.
The test animals were weighed and survivors recorded on a regular basis during a thirty day test period. The ratio of survival time for the treated and control animals (T/C) was determined as a percentage.
The tests were carried out at varying dosage levels and with varying numbers of repetitions, depending upon the results obtained with each test compoud. […] A reproducible T/C of 150% or higher is considered significant activity.
The number of mice "cured", viz., those surviving from each animal test group after the thirty day test period, is indicated in parenthesis following the T/C percentage data in Table III below: […]

[6] = tested on: Colon 38 tumor; assay: NCI 3C872, s.c.-implanted colon 38 carcinoma; assay type: in vivo, murine (mice); parameters: key to Treated/Control percent: (-): toxic dose
Description: as §1, §2

[7] = tested on: L1210 leukemia; assay: Effects of treatment schedule and route of administration against s.c.-implanted L1210 leukemia; assay type: in vivo
Description: The influences of treatment schedule and route of administration on the antitumor activity of the compound of Example 1 were evaluated using the s.c. implanted L1210 leukemia system. The drug was tested in the form of a freeze dried dosage form containing 50 mg. of the compound and 100 mg. N-methylglucamine, reconstituted with 5 ml. of sterile water to yield a 10 mg/ml. solution at about pH 9.5.
The percentage increases in life span (%ILS) are shown in the accompanying drawing for different treatment regimens and routes of administration. […] The highest percent ILS was 471 obtained by daily i.p. injections of the active material on a five day schedule of 45 mg/kg/injection, corresponding to a total dose of 225 mg/kg/duration of the treatment (test C in the drawing). This dosage also gave 5 cures.

[8] = tested on: Lewis lung carcinoma; assay: NCI 3LL39, i.v.-implanted Lewis lung carcinoma; assay type: in vivo, murine (mice)
Description: as §1, §2

[9] = tested on: MX-1 mammary tumor; assay: NCI 3MBG5, s.r.c. human mammary carcinoma MX-1 xenograft; assay type: in vivo, human tumor xenograft; parameters: key to Treated/Control percent: (-): toxic dose
Description: as §1, §2

[10] = tested on: P388 leukemia; assay: NCI 3PS31, i.p.-implanted P388 leukemia; assay type: in vivo, murine (mice); parameters: key to Treated/Control percent: (-): toxic dose
Description: as §1, §2

[11] = tested on: L1210 leukemia; assay: NCI 3LE37, i.c.-implanted L1210 leukemia; assay type: in vivo, murine (mice); parameters: key to Treated/Control percent: (-): toxic dose
Description: as §1, §2

[12] = 50 mg/kg, stated jointly for i.p. and s.c. L1210 systems
[13] = s.c. L1210, i.p. days 1-9 (Table I)
[14] = i.p. L1210, i.p. days 1-9 (Table I)

O=C(Nc1ccccc1)c1c(O)[nH]c(=S)[nH]c1=O [Example 1, 1,2,3,4-tetrahydro-6-hydroxy-4-oxo-N-phenyl-2-thioxo-5-pyrimidinecarboxamide]
Treated/Control percent ([1]; 12.5 mg/kg): 109% and 104% | Treated/Control percent ([1]; 25 mg/kg): 108% and 99% | Treated/Control percent ([1]; 50 mg/kg): 140% and 127% | maximum increased life spans [1, 12]: 87-190% | Treated/Control percent ([1]; 100 mg/kg): 300% and 254% | cures in test at specified dose ([1]; 100 mg/kg): 5 and 3 | curative, share of test mice ([1]; 100 mg/kg i.p. daily for 9 days, s.c. L1210): at least 50% | Treated/Control percent ([1]; 200 mg/kg): (-) | cures/total [1, 13]: 5/6 and 3/6 | increase in life-span (% ILS) [1, 13]: > 200% and > 154% | Treated/Control percent ([2]; 56 mg/kg): 61% | Treated/Control percent ([2]; 112 mg/kg): 80% | Treated/Control percent ([2]; 225 mg/kg): (-) | Treated/Control percent ([2]; 450 mg/kg): (-) | Treated/Control percent ([2]; 900 mg/kg): (-) | effectiveness (in words) ([2]; s.c. implanted CD8F1, experimental conditions employed): ineffective | Treated/Control percent ([3]; 6 mg/kg): 108% | Treated/Control percent ([3]; 12 mg/kg): 128% | Treated/Control percent ([3]; 25 mg/kg): 137% and 158% | Treated/Control percent ([3]; 50 mg/kg): 152% and 169% | Treated/Control percent ([3]; 100 mg/kg): 185% and 193% | increase in life-span (% ILS) ([3]; i.p. B16, days 1-9 i.p., optimal values at 100 mg/kg, 100 mg/kg): 93% and 85% | Activity (ILS) ([3]; over at least a 4-fold dosage range): 25% | Treated/Control percent ([4]; 12.5 mg/kg): 117% | Treated/Control percent ([4]; 25 mg/kg): 101% and 130% | Treated/Control percent ([4]; 50 mg/kg): 124% and 147% | Treated/Control percent ([4]; 100 mg/kg): 148% and 172% | Treated/Control percent ([4]; 200 mg/kg): (-) | cures/total ([4]; i.p. M5076, Days 1-13): 2/10 | increase in life-span (% ILS) ([4]; i.p. M5076, i.p. treatment on days 1, 5, 9 and 13, maximum values): 72% and 48% | maximum increased life spans [5, 12]: 87-190% | cures (in words) ([5]; 100 mg/kg): produced a number of cures at 100 mg/kg | curative, share of test mice ([5]; 100 mg/kg i.p. daily for 9 days, i.p. L1210): at least 50% | toxicity of 100 mg/kg dose ([5]; 100 mg/kg i.p. daily for 9 days, i.p. system): occasionally demonstrated some toxicity | activity in i.p.-implanted lymphoid leukemia test (in words) ([5]; 3LE31, reproducible T/C of 150% or higher is considered significant activity): exhibited significant activity | response vs control in vivo at 6.25 mg/kg ([5]; Mus musculus, L1210, ip, 6.25 mg/kg i.p. daily for nine days, read-out: T/C % (survival time treated/control)): 116% | response vs control in vivo at 12.5 mg/kg ([5]; Mus musculus, L1210, ip, 12.5 mg/kg i.p. daily for nine days, read-out: T/C % (survival time treated/control)): 117% | cures/total [5, 14]: 4/6 and 6/6 | increase in life-span (% ILS) [5, 14]: > 275% and > 229% | Treated/Control percent ([6]; 56 mg/kg): 70% and 120% | Treated/Control percent ([6]; 225 mg/kg): 51% | Treated/Control percent ([6]; 450 mg/kg): (-) | Treated/Control percent ([6]; 900 mg/kg): (-) | effectiveness (in words) ([6]; s.c. implanted colon 38, experimental conditions employed): ineffective | increases in life span by treatment and route (in words) ([7]; all treatments and routes, exceptions tests A and G (i.p. and i.v. one day, one injection)): increases in life span were noted using all treatments and routes of administration save for the i.p. and i.v. one day, one injection treatments | substantial increases in life span (% ILS) ([7]; each route and schedule save single treatment i.p. and i.v.): > 25% | toxicity (in words) ([7]; highest dose in each schedule, exception test F (i.p. every three hours on days one, five and nine)): toxicity was noted with the highest dose in each treatment schedule except for that involving i.p. administration every three hours on days one, five and nine of a nine day test | cures ([7]; test C: daily i.p., five days, 45 mg/kg/injection): 5 | increase in life span (% ILS) ([7]; test C: daily i.p., five days, 45 mg/kg/injection, total 225 mg/kg): 471% | cures ([7]; test I: oral daily for nine days, 124 mg/kg/injection): 4 | increase in life span (% ILS) ([7]; test I: oral daily for nine days, 124 mg/kg/injection, cumulative 1116 mg/kg): 452% | Treated/Control percent ([8]; 12.5 mg/kg): 103% | Treated/Control percent ([8]; 25 mg/kg): 106% | Treated/Control percent ([8]; 50 mg/kg): 115% | Treated/Control percent ([8]; 100 mg/kg): 126% | effectiveness (in words) ([8]; i.v. implanted, experimental conditions employed): ineffective | Treated/Control percent ([9]; 75 mg/kg): 98% | Treated/Control percent ([9]; 150 mg/kg): (-) | Treated/Control percent ([9]; 300 mg/kg): (-) | Treated/Control percent ([9]; 600 mg/kg): (-) | effectiveness (in words) ([9]; s.r.c. xenograft, experimental conditions employed): ineffective | Treated/Control percent ([10]; 3.13 mg/kg): 110% | Treated/Control percent ([10]; 6.25 mg/kg): 116% | Treated/Control percent ([10]; 12.5 mg/kg): 120% | Treated/Control percent ([10]; 25 mg/kg): 145% and 138% | Treated/Control percent ([10]; 50 mg/kg): 162% and 194% and 201% | Treated/Control percent ([10]; 100 mg/kg): (-) | Treated/Control percent ([10]; 200 mg/kg): (-) | increase in life-span (% ILS) ([10]; i.p. P388, 50 mg/kg i.p. daily, five days, maximum values): 101% and 94% and 62% | activity (in words) ([10]; standard NCI P388 preliminary screen): good activity | Treated/Control percent ([11]; 12.5 mg/kg): 94% and 106% | Treated/Control percent ([11]; 25 mg/kg): 98% | Treated/Control percent ([11]; 50 mg/kg): 113% and 108% | Treated/Control percent ([11]; 100 mg/kg): 128% and 134% | activity (in words) ([11]; 100 mg/kg i.p. daily for 9 days): marginal activity | Treated/Control percent ([11]; 200 mg/kg): (-) | increase in life-span (% ILS) ([11]; i.c. L1210, 100 mg/kg i.p. daily for 9 days): 28-34%

Source: US4634707A, “5-Pyrimidinecarboxamides and treatment of leukemia and tumors therewith” (Uniroyal Chemical Company, priority 1984, dated 1987)
